Patent US20150203498A1, “INHIBITORS OF PHOSPHODIESTERASE 10 ENZYME” (Janssen Pharmaceutica NV, priority 2012, published 2015)
“And” between values parts separate entries of the source, which are not always exact repeats. Identical values can stand only once. Like-named read-outs stand apart in the source and are kept apart here.

Tests used:
hPDE10A2 = target: T1, hPDE10A2 (Homo sapiens, UniProt Q9Y233); test: In vitro assay PDE10A, human recombinant enzyme (SPA, 3H-cAMP); type: biochemical; conditions: -log IC50 expressed in mol/L; 60 nM cAMP; read-out: PDE10A2 pIC50 - human enzyme (converted)
T1 construct: made in house; host or cells: Sf9 insect cells (baculovirus)
T1 sequence (Q9Y233 267-1055): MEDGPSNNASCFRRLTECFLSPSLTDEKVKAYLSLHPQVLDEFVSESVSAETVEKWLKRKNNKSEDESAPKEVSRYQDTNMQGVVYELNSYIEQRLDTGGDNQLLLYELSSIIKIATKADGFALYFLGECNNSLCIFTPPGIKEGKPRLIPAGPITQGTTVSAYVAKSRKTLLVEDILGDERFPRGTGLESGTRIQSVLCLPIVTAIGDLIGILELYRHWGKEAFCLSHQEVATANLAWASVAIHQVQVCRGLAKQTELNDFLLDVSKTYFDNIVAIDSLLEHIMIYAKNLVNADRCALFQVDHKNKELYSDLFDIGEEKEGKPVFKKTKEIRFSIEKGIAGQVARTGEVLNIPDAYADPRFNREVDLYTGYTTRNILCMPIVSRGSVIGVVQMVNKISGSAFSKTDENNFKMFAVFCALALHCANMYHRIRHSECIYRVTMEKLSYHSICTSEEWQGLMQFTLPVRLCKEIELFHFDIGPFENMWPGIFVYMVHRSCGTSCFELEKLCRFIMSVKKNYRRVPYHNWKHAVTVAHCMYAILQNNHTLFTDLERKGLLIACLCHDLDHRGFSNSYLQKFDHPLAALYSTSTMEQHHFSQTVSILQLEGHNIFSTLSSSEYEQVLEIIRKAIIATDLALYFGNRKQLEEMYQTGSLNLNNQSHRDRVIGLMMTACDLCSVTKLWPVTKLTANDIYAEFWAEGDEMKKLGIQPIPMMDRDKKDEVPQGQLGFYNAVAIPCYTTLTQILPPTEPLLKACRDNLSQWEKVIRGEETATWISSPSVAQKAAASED
Experimental: (§1) Human or rat recombinant PDE10A (hPDE10A2 or rPDE10A2) was expressed in Sf9 cells using a recombinant hPDE10A or rPDE10A baculovirus construct. Cells were harvested after 48 h of infection and the hPDE10A or rPDE10A protein was purified by metal chelate chromatography on Ni-sepharose 6FF. Tested compounds were dissolved and diluted in 100% DMSO to a concentration 100 fold of the final concentration in the assay. Compound dilutions (0.4 μl) were added in 384 well plates to 20 μl of incubation buffer (50 mM Tris pH 7.8, 8.3 mM MgCl2, 1.7 mM EGTA). 10 μl of hPDE10A or rPDE10A enzyme in incubation buffer was added and the reaction was started by addition of 10 μl substrate to a final concentration of 60 nM cAMP and 0.008 μCi ^3H-cAMP. The reaction was incubated for 60 min. at RT. After incubation, the reaction was stopped with 20 μl of stop solution consisting of 17.8 mg/ml PDE SPA (scintillation proximity assay) beads. After sedimentation of the beads during 30 min. the radioactivity was measured in a Perkin Elmer Topcount scintillation counter and results were expressed as cpm. For blanc values the enzyme was omitted from the reaction and replaced by incubation buffer. Control values were obtained by addition of a final concentration of 1% DMSO instead of compound. A best fit curve was fitted by a minimum sum of squares method to the plot of % of control value substracted with blanc value versus compound concentration and the half maximal inhibitory concentration (IC50) value was derived from this curve.

rPDE10A2 = target: T2, rPDE10A2 (Rattus norvegicus, UniProt Q9QYJ6); test: In vitro assay PDE10A, rat recombinant enzyme (SPA, 3H-cAMP); type: biochemical; conditions: -log IC50 expressed in mol/L; 60 nM cAMP; read-out: PDE10A2 pIC50 - rat enzyme (converted)
T2 construct: made in house; host or cells: Sf9 insect cells (baculovirus)
T2 sequence (Q9QYJ6 1-794): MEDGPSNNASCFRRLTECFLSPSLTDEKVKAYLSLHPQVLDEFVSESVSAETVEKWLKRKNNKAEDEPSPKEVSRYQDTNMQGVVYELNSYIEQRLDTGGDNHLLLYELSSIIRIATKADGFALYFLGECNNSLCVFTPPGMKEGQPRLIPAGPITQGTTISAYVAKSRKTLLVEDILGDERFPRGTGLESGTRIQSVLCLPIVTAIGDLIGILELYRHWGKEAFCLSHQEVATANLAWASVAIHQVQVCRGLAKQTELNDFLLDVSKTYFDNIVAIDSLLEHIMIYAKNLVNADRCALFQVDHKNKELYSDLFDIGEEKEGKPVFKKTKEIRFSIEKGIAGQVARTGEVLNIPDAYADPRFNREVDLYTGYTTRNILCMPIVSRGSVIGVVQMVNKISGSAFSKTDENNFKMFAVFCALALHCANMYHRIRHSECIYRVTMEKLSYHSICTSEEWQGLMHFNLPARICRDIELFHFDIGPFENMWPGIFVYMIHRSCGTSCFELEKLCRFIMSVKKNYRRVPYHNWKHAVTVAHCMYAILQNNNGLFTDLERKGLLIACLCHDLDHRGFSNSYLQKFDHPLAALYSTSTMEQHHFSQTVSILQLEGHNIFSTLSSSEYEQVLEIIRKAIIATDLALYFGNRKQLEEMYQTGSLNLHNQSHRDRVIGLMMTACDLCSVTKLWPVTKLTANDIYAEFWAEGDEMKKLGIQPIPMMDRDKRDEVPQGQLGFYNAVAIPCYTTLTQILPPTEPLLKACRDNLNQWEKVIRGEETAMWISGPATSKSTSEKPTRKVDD
Experimental: as §1

[1] = test system: apomorphine-induced stereotypy; test: Apomorphine-induced stereotypy in rats (APO); type: in vivo, rat; conditions: apomorphine 1.0 mg/kg i.v.; for ED50: Rattus norvegicus
Experimental: Apomorphine (1.0 mg/kg, i.v.)-induced stereotypy (compulsive sniffing, licking, chewing) was scored every 5 min. over the first hour after injection of apomorphine, following a 1 hour interval pre-treatment with the test compound. The score system was: (3) pronounced, (2) moderate, (1) slight, and (0) absent. Criteria for drug-induced inhibition of stereotypy: fewer than 6 scores of 3 (0.16% false positives), fewer than 6 scores of 2 (0.0% false positives), or fewer than 7 scores of 1 (0.81% false positives).

[2] = Plasma protein binding by equilibrium dialysis; type: in vitro ADME, human; conditions: male, human, plasma, pH 7.17, human plasma
Experimental: (§2) The plasma protein binding and blood distribution was investigated in healthy human subjects. Fresh blood was collected and centrifugated (approximately 1700 g for 10 min, room temperature, Hettich Rotixa AP centrifuge). The experiment was started within 4 hours after blood collection.
(§3) Individual blank plasma samples from three healthy male subjects, tested in duplicate, were fortified with compound la or compound lb at different concentrations (see Table 5). Plasma samples were spiked with 10 μl spike solution per ml of sample (1% ethanol (v/v)).
(§4) Fortified plasma was subjected to equilibrium dialysis (ED), for 4 h against a 0.067 M phosphate buffer, pH 7.17 at 37° C. in a Dianorm system with identical macro-1 Teflon cells and Spectra/Por® RC 2 dialysis membranes (MW cut-off 12-14 kDa). After dialysis, the contents of the two compartments of the dialysis cells were collected separately. The buffer samples were diluted with 1 mL of 5% Bovine Serum Albumin in a Phosphate buffer 0.05M, pH 7.5.
(§5) The plasma samples (before and after equilibrium dialysis) and buffer samples were analysed for compound la or compound lb using a qualified chiral LC-MS/MS assay on a API4000 mass spectrometer (Applied Biosystems).
(§6) The fraction of the unbound test compound (fu) was calculated as the ratio of the unbound concentration (Cu) in the buffer compartment to the total concentration (CED) in the protein compartment of the dialysis cells. The percentage of the free test compound was calculated as […]

plasma proteins = test: Plasma protein binding by equilibrium dialysis; type: in vitro ADME, human; conditions: human plasma; for Free fraction, Average per subject: average of duplicate per subject; for Free fraction: single determinations, subjects 1-3 in duplicate, equilibrium dialysis 4 h, 37° C.; for Concentration dependency in the plasma protein binding: within the concentration range tested
Experimental: as §2, §3, §4, §5, §6

[3] = Pharmacokinetics of oral microdose in healthy subjects; type: in vivo, human; conditions: single oral dose of 100 μg
From the text: The pharmacokinetics of an oral microdose of compound 1 according to the invention and compound 1 of WO2011/051342 was studied by a single-dose, open-label, parallel-group, randomized pharmacokinetic (PK) study. Each treatment group consisted of 6 subjects (healthy men between 18 to 55 years with a body mass index (BMI) between 18 and 30 kg/m^2 (inclusive) and body weight not less than 50 kg). Subjects were randomized to receive either compound 1 of WO2011/051342 or compound 1 (according to the invention) treatment.
Compound 1 of WO2011/051342 and compound 1 according to the invention were supplied as a 0.1 mg/mL oral solution containing HP-β-CD and citric acid in purified water. The pH of the solution was adjusted to pH 2.0 by the use of hydrochloric acid. Subjects were admitted to the investigational site on Day -1. Following an overnight fast of at least 10 hours, subjects received a single oral aqueous solution of […] of compound 1 of WO2011/051342 or compound 1 according to the invention, with 240 mL of noncarbonated water as per randomization in the morning of Day 1 between 7:00 AM and 10:30 AM. Drinks were not allowed from 1 hour prior until 1 hour after drug administration. Blood samples were collected at specified time points to measure compound 1 of WO2011/051342 or compound 1 (according to the invention) plasma concentrations. Subjects were discharged on Day 3 after collecting the 48-hour PK sample. Subjects returned to the clinical unit on the morning of Day 4 for the 72-hour PK blood sampling.
Venous blood samples of 6 mL for the measurement of compound 1 of WO2011/051342 or compound 1 according to the invention plasma concentrations were collected at specified time points.
Plasma samples were analyzed to determine concentrations of compound 1 of WO2011/051342 or compound 1 according to the invention using a qualified liquid chromatography/mass spectrometry/mass spectrometry (LC-MS/MS) method.
Pharmacokinetic analyses were performed for all subjects' data who received a dose of compound 1 of WO2011/051342 and compound 1 according to the invention. Plasma concentrations versus time profiles were plotted for each subject. Mean concentration versus time profiles were plotted for each compound, based on planned blood sampling times. Descriptive statistics, including arithmetic mean, standard deviation, CV, geometric mean, median, minimum, and maximum were calculated for the plasma concentrations at each sampling time and for all PK parameters of compound 1 of WO2011/051342 and compound 1 according to the invention.

[4] = iv, 1 hour pre-treatment with test compound, dose at which 50% of animals show the effect
[5] = average of duplicate per subject, read-out: Free fraction, Average per subject
[6] = single determinations, subjects 1-3 in duplicate, equilibrium dialysis 4 h, 37° C., read-out: Free fraction
[7] = male, human, plasma, 100 ug, fasted, mean

COCC(O)c1ccc(-c2c(C)nc3c(N4CCOCC4)ccnn23)cn1 (single isomer, unassigned) [Compound 1a]
IC50 (hPDE10A2): 75.9 nM
IC50 (rPDE10A2): 47.9 nM
ED50 [1, 4]: 1.2 mg/kg
fraction unbound at 4 h, 0.1 μg/ml [2, 5]: 0.481
fraction unbound at 4 h, 0.1 μg/ml [2, 6]: 0.468
fraction unbound at 4 h, 13 μg/ml [2, 5]: 0.448
fraction unbound at 4 h, 13 μg/ml [2, 6]: 0.446
fraction unbound at 4 h ([2]; 0.1 and 13 μg/ml pooled, three subjects in duplicate, read-out: Free fraction, Average (S.D.) (n = 12)): 0.469
Average percentage of free compound in plasma (plasma proteins; 0.1 μg/ml): 48.3%
Free fraction, Average per subject (plasma proteins; 0.1 μg/ml): 48.5% and 48.3%
Free fraction (plasma proteins; 0.1 μg/ml): 50.1% and 47.6% and 48.9% and 47.3%
Average percentage of free compound in plasma (plasma proteins; 13 μg/ml): 45.5%
Free fraction, Average per subject (plasma proteins; 13 μg/ml): 45.4% and 46.2%
Free fraction (plasma proteins; 13 μg/ml): 46.1% and 46.5% and 46.0% and 43.9% and 45.6%
Concentration dependency in the plasma protein binding (plasma proteins): No relevant concentration dependency
melting point: 134.9 °C

COCC(O)c1ccc(-c2c(C)nc3c(N4CCOCC4)ccnn23)cn1 (single isomer, unassigned) [Compound 1b]
IC50 (hPDE10A2): 60.3 nM
IC50 (rPDE10A2): 50.1 nM
APO ED50 ([1]; 1 hour pre-treatment with test compound, dose at which 50% of animals show the effect): 1.2 mg/kg
Average percentage of free compound in plasma (plasma proteins; 0.1 μg/ml): 53.4%
Free fraction, Average per subject (plasma proteins; 0.1 μg/ml): 54.0% and 56.3% and 50.0%
Free fraction (plasma proteins; 0.1 μg/ml): 55.2% and 57.4% and 46.9% and 53.1% and 54.9%
Average percentage of free compound in plasma (plasma proteins; 13 μg/ml): 50.9%
Free fraction, Average per subject (plasma proteins; 13 μg/ml): 52.6% and 49.6% and 50.5%
Free fraction (plasma proteins; 13 μg/ml): 52.7% and 46.6% and 51.4% and 49.7% and 51.9% and 53.3%
Free fraction, Average (S.D.) (n = 12) (plasma proteins; 0.1 and 13 μg/ml pooled, three subjects in duplicate): 52.2 (3.2) %
Concentration dependency in the plasma protein binding (plasma proteins): No relevant concentration dependency
melting point: 135.7 °C

COCC(O)c1ccc(-c2c(C)nc3c(N4CCOCC4)ccnn23)cn1 (stereo not drawn) [Compound 1, 2-Methoxy-1-[5-(2-methyl-8-morpholin-4-ylimidazo[1,2-b]pyridazin-3-yl)pyridin-2-yl]ethanol]
IC50 (hPDE10A2): 64.6 nM
IC50 (rPDE10A2): 55 nM
ED50 ([1]; compound dosed orally, 1 hour pre-treatment): 1 mg/kg
Tmax ([3]; male, human, plasma, 100 ug, fasted, Median (Min-Max)): 0.64 h
AUC(0-inf) [3, 7]: 2.64 ng·h/mL
AUC(0-t) [3, 7]: 2.61 ng·h/mL
Cmax [3, 7]: 0.758 ng/mL
Vd/F [3, 7]: 333 ± 117 L
half-life [3, 7]: 5.7 h
Cl/F, fold lower compared to compound 1 of WO2011/051342 [3]: approximately 3.8 fold
Vd/F, fold lower compared to compound 1 of WO2011/051342 [3]: approximately 3.5 fold
CL/F ([3]; fasted, mean): 47.9 ± 24.6 L/h and 47.9 L/h
λz ([3]; fasted, mean): 0.148 h⁻¹
melting point: 137.2 °C

COCC(O)c1ccc(-c2c(C)nc3c(N4CCOCC4)nccn23)cn1 (stereo not drawn) [Compound 2, 2-Methoxy-1-[5-(2-methyl-8-morpholin-4-ylimidazo[1,2-a]pyrazin-3-yl)pyridin-2-yl]ethanol]
IC50 (hPDE10A2): 263 nM
ED50 [1, 4]: 0.31 mg/kg
melting point: 106.9 °C

Cc1nc2c(N3CCOCC3)ccnn2c1-c1ccc(C2(O)CCOCC2)nc1 [Compound 3, 4-[5-(2-Methyl-8-morpholin-4-ylimidazo[1,2-b]pyridazin-3-yl)pyridin-2-yl]tetrahydro-2H-pyran-4-ol]
IC50 (hPDE10A2): 27.5 nM
ED50 [1, 4]: 0.31 mg/kg
melting point: 189.2 °C

Cc1nc2c(N3CCOCC3)nccn2c1-c1ccc(C2(O)CCOCC2)nc1 [Compound 4, 4-[5-(2-Methyl-8-morpholin-4-ylimidazo[1,2-a]pyrazin-3-yl)pyridin-2-yl]tetrahydro-2H-pyran-4-ol]
IC50 (hPDE10A2): 112 nM
ED50 [1, 4]: 0.31 mg/kg
melting point: 181.6 °C
